Experimental data published in US20240376100A1 (Redona Therapeutics, Inc., priority 2021, published 2024).
pIC50: −log10 of the molar value. Counter-ions that a name gives are not always drawn.

Target: PAPD5 enzyme (Homo sapiens, UniProt Q8NDF8)
Assay: PAPD5 assay (AMP incorporation onto 3'-terminus of RNA substrate, fluorescence quench)
Type: biochemical
Conditions: PAPD5 protein 0.3 nM, ATP 50 μM, 30 minutes preincubation, room temperature; read-out: Potency PAPD5 IC50
Description: The purpose of the PAPD5 assay is to determine compound potency against PAPD5 enzyme through the measurement of IC50. Compound inhibition is measured as a function of AMP incorporation onto the 3′-terminus of an RNA substrate in the presence of active PAPD5, ATP, and inhibitor. The PAPD5 assay was done in a black, non-binding, 384 well plate (Corning #3575). All steps were performed at room temperature. For a typical assay, a 40 ul aliquot of assay buffer (50 mM HEPES pH 7.3, 20 mM KCl, 10 mM MgCl2, 10 mMM DTT, 0.01% Triton X-100, 40 U/ml RNAsin (Promega)) containing PAPD5 protein (final 10 concentration: 0.3 nM) and ATP (final concentration 50 μM) was added to each well. Next, 1 ul of compound in 100% DMSO is transferred from a compound dilution plate in which the compound is serially diluted. The plate was placed on a plate shaker for 30 seconds to produce mixing, then incubated for 30 minutes. Next, 10 ul of a 5× mix of RNA substrate (5′-fluorescein-AUAGAG-3′ (IDT)) and a DNA oligonucleotide that is complementary to the AMP modified RNA product (5′-TCTCTATT-3′-TAMRA, wherein the first two nucleotides are locked nucleic acids (IDT)) was added (final concentrations: 5 nM and 20 nM, respectively). The plate was placed on a plate shaker for 30 seconds to produce mixing then immediately placed in a Biotek Cytation 5 plate reader, and the time-dependent decrease in fluorescein fluorescence resulting from annealing of the TAMRA labeled quenching probe was recorded, using the kinetics mode of the reader (typical run time is 90 minutes). Reaction rates were obtained using linear fits to the early portion of progress curves. IC50 values were calculated using a four-parameter fit with 100% enzyme activity determined from the DMSO control and 0% activity from control samples lacking UTP.
“+” represents an IC50 value that is greater than 50 PM; “++” represents an IC50 value that is greater than 10 μM and equal to or less than 50 μM; “+++” represents an IC50 value that is greater than 1 μM and equal to or less than 10 μM; and “++++” represents an IC50 value that is equal to or less than 1 μM.

Chain of PAPD5 enzyme (Q8NDF8 whole entry): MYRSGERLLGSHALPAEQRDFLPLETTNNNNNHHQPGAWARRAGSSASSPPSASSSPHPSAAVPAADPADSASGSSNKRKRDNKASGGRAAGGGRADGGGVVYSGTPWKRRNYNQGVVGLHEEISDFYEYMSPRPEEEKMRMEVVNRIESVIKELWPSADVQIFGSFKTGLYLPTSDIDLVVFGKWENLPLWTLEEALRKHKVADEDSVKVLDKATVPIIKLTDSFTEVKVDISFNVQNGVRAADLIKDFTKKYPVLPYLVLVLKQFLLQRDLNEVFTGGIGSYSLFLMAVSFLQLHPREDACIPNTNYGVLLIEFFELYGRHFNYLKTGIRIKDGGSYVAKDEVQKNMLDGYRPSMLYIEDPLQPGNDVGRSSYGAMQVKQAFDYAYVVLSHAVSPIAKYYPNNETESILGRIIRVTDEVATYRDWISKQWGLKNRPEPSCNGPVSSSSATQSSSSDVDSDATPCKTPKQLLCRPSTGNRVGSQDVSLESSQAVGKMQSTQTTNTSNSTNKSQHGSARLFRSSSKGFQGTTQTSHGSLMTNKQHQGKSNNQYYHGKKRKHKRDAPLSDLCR

| Structure (SMILES) | pIC50 |
| --- | --- |
| O=C(O)c1cn(CC2CCC2)c2cc(N3Cc4cccnc4C3)c(Cl)cc2c1=O [Example 33, 6-chloro-1-(cyclobutylmethyl)-7-(5,7-dihydro-6H-pyrrolo[3,4-b]pyridin-6-yl)-4-oxo-1,4-dihydroquinoline-3-carboxylic acid] | ≥ 6.00 |
| CC(C)Cn1cc(C(=O)O)c(=O)c2cc(Cl)c(N3Cc4cccnc4C3)nc21 [Example 34, 6-chloro-7-(5,7-dihydro-6H-pyrrolo[3,4-b]pyridin-6-yl)-1-isobutyl-4-oxo-1,4-dihydro-1,8-naphthyridine-3-carboxylic acid] | ≥ 6.00 |
| CN(C)C1CN(c2ccc(-n3cc(C(=O)O)c(=O)c4cc(C#N)c(N5Cc6cccnc6C5)cc43)cn2)C1 [Example 36, 6-cyano-7-(5,7-dihydro-6H-pyrrolo[3,4-b]pyridin-6-yl)-1-(6-(3-(dimethylamino)azetidin-1-yl)pyridin-3-yl)-4-oxo-1,4-dihydroquinoline-3-carboxylic acid] | ≥ 6.00 |
| N#Cc1cc2c(=O)c(C(=O)O)cn(-c3ccc(O)c(F)c3)c2cc1N1Cc2cccnc2C1 [Example 37, 6-cyano-7-(5,7-dihydro-6H-pyrrolo[3,4-b]pyridin-6-yl)-1-(3-fluoro-4-hydroxyphenyl)-4-oxo-1,4-dihydroquinoline-3-carboxylic acid] | ≥ 6.00 |
| N#Cc1cc2c(=O)c(C(=O)O)cn(-c3ccc(O)cc3F)c2cc1N1Cc2cccnc2C1 [Example 38, 6-cyano-7-(5,7-dihydro-6H-pyrrolo[3,4-b]pyridin-6-yl)-1-(2-fluoro-4-hydroxyphenyl)-4-oxo-1,4-dihydroquinoline-3-carboxylic acid] | ≥ 6.00 |
| COc1ccc(-c2ccn(-c3cc4c(cc3F)c(=O)c(C(=O)O)cn4-c3ccc(O)cc3F)n2)cc1 [Example 39, 6-fluoro-1-(2-fluoro-4-hydroxyphenyl)-7-(3-(4-methoxyphenyl)-1H-pyrazol-1-yl)-4-oxo-1,4-dihydroquinoline-3-carboxylic acid] | ≥ 6.00 |
| O=C(O)c1cn(Cc2ccccc2)c2nc(N3Cc4cccnc4C3)c(Cl)cc2c1=O [Example 40, 1-benzyl-6-chloro-7-(5,7-dihydro-6H-pyrrolo[3,4-b]pyridin-6-yl)-4-oxo-1,4-dihydro-1,8-naphthyridine-3-carboxylic acid] | ≥ 6.00 |
| COc1ccccc1Cn1cc(C(=O)O)c(=O)c2cc(Cl)c(N3Cc4cccnc4C3)nc21 [Example 41, 6-chloro-7-(5,7-dihydro-6H-pyrrolo[3,4-b]pyridin-6-yl)-1-(2-methoxybenzyl)-4-oxo-1,4-dihydro-1,8-naphthyridine-3-carboxylic acid] | ≥ 6.00 |
| COc1cccc(Cn2cc(C(=O)O)c(=O)c3cc(Cl)c(N4Cc5cccnc5C4)nc32)c1 [Example 42, 6-chloro-7-(5,7-dihydro-6H-pyrrolo[3,4-b]pyridin-6-yl)-1-(3-methoxybenzyl)-4-oxo-1,4-dihydro-1,8-naphthyridine-3-carboxylic acid] | ≥ 6.00 |
| CC(c1ccccc1)n1cc(C(=O)O)c(=O)c2cc(Cl)c(N3Cc4cccnc4C3)nc21 (centres unmarked) [Example 43, 6-chloro-7-(5,7-dihydro-6H-pyrrolo[3,4-b]pyridin-6-yl)-4-oxo-1-(1-phenylethyl)-1,4-dihydro-1,8-naphthyridine-3-carboxylic acid] | ≥ 6.00 |
| COc1ccc(Cn2cc(C(=O)O)c(=O)c3cc(Cl)c(N4Cc5cccnc5C4)nc32)cc1 [Example 44, 6-chloro-7-(5,7-dihydro-6H-pyrrolo[3,4-b]pyridin-6-yl)-1-(4-methoxybenzyl)-4-oxo-1,4-dihydro-1,8-naphthyridine-3-carboxylic acid] | ≥ 6.00 |
| N#Cc1cc2c(=O)c(C(=O)O)cn(-c3cnccn3)c2nc1N1Cc2cccnc2C1 [Example 45, 6-cyano-7-(5,7-dihydro-6H-pyrrolo[3,4-b]pyridin-6-yl)-4-oxo-1-(pyrazin-2-yl)-1,4-dihydro-1,8-naphthyridine-3-carboxylic acid] | ≥ 6.00 |
| Cc1nc(NC(=O)OC(C)(C)C)ccc1-n1cc(C(=O)O)c(=O)c2cc(Cl)c(N3Cc4cccnc4C3)cc21 [Example 46, 1-(6-((tert-butoxycarbonyl)amino)-2-methylpyridin-3-yl)-6-chloro-7-(5,7-dihydro-6H-pyrrolo[3,4-b]pyridin-6-yl)-4-oxo-1,4-dihydroquinoline-3-carboxylic acid] | ≥ 6.00 |
| N#Cc1cc2c(=O)c(C(=O)O)cn(-c3cnccn3)c2cc1N1Cc2cccnc2C1 [Example 47, 6-cyano-7-(5,7-dihydro-6H-pyrrolo[3,4-b]pyridin-6-yl)-4-oxo-1-(pyrazin-2-yl)-1,4-dihydroquinoline-3-carboxylic acid] | ≥ 6.00 |
| N#Cc1cc2c(=O)c(C(=O)O)cn(-c3ccc(N)nc3)c2cc1N1Cc2cccnc2C1 [Example 48, 1-(6-aminopyridin-3-yl)-6-cyano-7-(5,7-dihydro-6H-pyrrolo[3,4-b]pyridin-6-yl)-4-oxo-1,4-dihydroquinoline-3-carboxylic acid] | ≥ 6.00 |
| N#Cc1cc2c(=O)c(C(=O)O)cn(-c3ccc(N4CCC4)nc3)c2cc1N1Cc2cccnc2C1 [Example 49, 1-(6-(azetidin-1-yl)pyridin-3-yl)-6-cyano-7-(5,7-dihydro-6H-pyrrolo-[3,4-b]pyridin-6-yl)-4-oxo-1,4-dihydroquinoline-3-carboxylic acid] | ≥ 6.00 |
| COCCNc1ccc(-n2cc(C(=O)O)c(=O)c3cc(C#N)c(N4Cc5cccnc5C4)cc32)cn1 [Example 50, 6-cyano-7-(5,7-dihydro-6H-pyrrolo[3,4-b]pyridin-6-yl)-1-(6-((2-methoxyethyl)amino)pyridin-3-yl)-4-oxo-1,4-dihydroquinoline-3-carboxylic acid] | ≥ 6.00 |
| Nc1ccc(-n2cc(C(=O)O)c(=O)c3cc(Cl)c(N4Cc5cccnc5C4)nc32)cn1 [Example 51, 1-(6-aminopyridin-3-yl)-6-chloro-7-(5,7-dihydro-6H-pyrrolo[3,4-b]pyridin-6-yl)-4-oxo-1,4-dihydro-1,8-naphthyridine-3-carboxylic acid] | ≥ 6.00 |
| Nc1ccc(-n2cc(C(=O)O)c(=O)c3cc(Cl)c(N4Cc5cccnc5C4)cc32)cn1 [Example 52, 1-(6-aminopyridin-3-yl)-6-chloro-7-(5,7-dihydro-6H-pyrrolo[3,4-b]pyridin-6-yl)-4-oxo-1,4-dihydroquinoline-3-carboxylic acid] | ≥ 6.00 |
| N#Cc1cc2c(=O)c(C(=O)O)cn(-c3cccnc3)c2cc1N1Cc2cccc(F)c2C1 [Example 53, 6-cyano-7-(4-fluoroisoindolin-2-yl)-4-oxo-1-(pyridin-3-yl)-1,4-dihydroquinoline-3-carboxylic acid] | ≥ 6.00 |
| COc1cnc(-n2cc(C(=O)O)c(=O)c3cc(C#N)c(N4Cc5cccnc5C4)cc32)cn1 [Example 54, 6-cyano-7-(5,7-dihydro-6H-pyrrolo[3,4-b]pyridin-6-yl)-1-(5-methoxypyrazin-2-yl)-4-oxo-1,4-dihydro quinoline-3-carboxylic acid] | ≥ 6.00 |
| COc1ccc(-n2cc(C(=O)O)c(=O)c3cc(C#N)c(N4Cc5cccnc5C4)cc32)cn1 [Example 55, 6-cyano-7-(5,7-dihydro-6H-pyrrolo[3,4-b]pyridin-6-yl)-1-(6-methoxypyridin-3-yl)-4-oxo-1,4-dihydroquinoline-3-carboxylic acid] | ≥ 6.00 |
| N#Cc1cc2c(=O)c(C(=O)O)cn(-c3ccc(O)nc3)c2cc1N1Cc2cccnc2C1 [Example 56, 6-cyano-7-(5,7-dihydro-6H-pyrrolo[3,4-b]pyridin-6-yl)-1-(6-hydroxypyridin-3-yl)-4-oxo-1,4-dihydroquinoline-3-carboxylic acid] | ≥ 6.00 |
| CS(=O)(=O)Nc1ccc(-n2cc(C(=O)O)c(=O)c3cc(C#N)c(N4Cc5cccnc5C4)cc32)c(F)c1 [Example 57, 6-cyano-7-(5,7-dihydro-6H-pyrrolo[3,4-b]pyridin-6-yl)-1-(2-fluoro-4-(methylsulfonamido)phenyl)-4-oxo-1,4-dihydroquinoline-3-carboxylic acid] | ≥ 6.00 |
| COCCOc1ccc(-n2cc(C(=O)O)c(=O)c3cc(C#N)c(N4Cc5cccnc5C4)cc32)cn1 [Example 58, 6-cyano-7-(5,7-dihydro-6H-pyrrolo[3,4-b]pyridin-6-yl)-1-(6-(2-methoxyethoxy)pyridin-3-yl)-4-oxo-1,4-dihydroquinoline-3-carboxylic acid] | ≥ 6.00 |
| CN(C)CCOc1ccc(-n2cc(C(=O)O)c(=O)c3cc(C#N)c(N4Cc5cccnc5C4)cc32)cn1 [Example 59, 6-cyano-7-(5,7-dihydro-6H-pyrrolo[3,4-b]pyridin-6-yl)-1-(6-(2-(dimethylamino)ethoxy)pyridin-3-yl)-4-oxo-1,4-dihydroquinoline-3-carboxylic acid hydrochloride] | ≥ 6.00 |
